Target: T1, FASTKD5 FAST kinase domain-containing protein 5 (Homo sapiens, UniProt Q7L8L6)
T1 construct: 200 μL of lysate containing 5 mg/ml proteome was treated with 2 μL of 100× compound stock; endogenous in cells
T1 sequence (Q7L8L6 28-764): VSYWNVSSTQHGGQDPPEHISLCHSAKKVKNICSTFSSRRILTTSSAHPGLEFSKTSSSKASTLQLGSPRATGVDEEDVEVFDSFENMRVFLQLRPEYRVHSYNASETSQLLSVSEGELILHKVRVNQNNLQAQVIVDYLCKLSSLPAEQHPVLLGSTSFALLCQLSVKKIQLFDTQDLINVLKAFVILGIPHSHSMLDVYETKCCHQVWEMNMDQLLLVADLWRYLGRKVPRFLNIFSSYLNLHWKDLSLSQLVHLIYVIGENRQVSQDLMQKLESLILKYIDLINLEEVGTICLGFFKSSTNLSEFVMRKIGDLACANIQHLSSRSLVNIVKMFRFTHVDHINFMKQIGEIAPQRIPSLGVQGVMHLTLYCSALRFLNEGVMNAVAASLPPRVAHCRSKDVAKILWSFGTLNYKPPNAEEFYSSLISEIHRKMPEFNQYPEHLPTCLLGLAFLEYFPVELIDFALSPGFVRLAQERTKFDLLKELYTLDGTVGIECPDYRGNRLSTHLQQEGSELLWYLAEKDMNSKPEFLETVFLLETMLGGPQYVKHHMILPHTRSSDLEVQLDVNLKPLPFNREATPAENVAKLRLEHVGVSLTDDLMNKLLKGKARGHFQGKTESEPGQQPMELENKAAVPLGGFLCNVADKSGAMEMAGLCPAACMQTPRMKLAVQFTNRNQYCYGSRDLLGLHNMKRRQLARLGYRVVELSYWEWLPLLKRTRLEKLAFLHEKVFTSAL
Experiment: Cysteine liganding, probe competition
Assay type: binding
In short: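 Lysates from probe-sonicated cells in PBS (5 mg/ml proteome) were exposed to compound for 1 hr at 25° C, then labelled with desthiobiotin iodoacetamide probe (10 mM stock) for 1 hr at 25° C. Probe-tagged peptides were streptavidin-enriched after trypsin digestion.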

## COc1ccc2c(c1)CCCN2C(=O)CCl [KB02]
FASTKD5 Res# 670, uniprot Q7L8L6
  Liganded: YES

## O=C(CCl)Nc1cc(C(F)(F)F)cc(C(F)(F)F)c1 [KBO3]
Uniprot Q7L8L6
  100 Max: 14.75
  100 ave: 14.55
  500 Max: 57.23
  500 ave: 45.06

Reference: patent US20200239530A1, “COMPOUNDS AND METHODS OF MODULATING PROTEIN DEGRADATION” (Vividion Therapeutics, Inc., priority 2017, published 2020)
